Laboratory results from publication PMC12770358, “Molecular defense strategy of volatile organic compound-emitting plants (order Piperales) against herbivorous mammals” (Communications Biology, 2025).

What was measured:
Assay type in all cases: cell-based
[1] = molecular target: T1, TRPA1 (Homo sapiens, UniProt O75762); assay: excised-patch single-channel recording and calcium imaging, […]
T1 construct: Human TRPA1 (NM_007332) expressed in HEK293T cells

[2] = molecular target: T1, TRPA1; assay: whole-cell and excised-patch (inside-out/outside-out) patch clamp, calcium imaging
[3] = molecular target: T2, TRPA1 (Homo sapiens, UniProt O75762, C641A); assay: whole-cell patch clamp dose-response
T2 construct: hTRPA1 mutant expressed in HEK293 cells
T2 sequence (O75762 whole entry C641A): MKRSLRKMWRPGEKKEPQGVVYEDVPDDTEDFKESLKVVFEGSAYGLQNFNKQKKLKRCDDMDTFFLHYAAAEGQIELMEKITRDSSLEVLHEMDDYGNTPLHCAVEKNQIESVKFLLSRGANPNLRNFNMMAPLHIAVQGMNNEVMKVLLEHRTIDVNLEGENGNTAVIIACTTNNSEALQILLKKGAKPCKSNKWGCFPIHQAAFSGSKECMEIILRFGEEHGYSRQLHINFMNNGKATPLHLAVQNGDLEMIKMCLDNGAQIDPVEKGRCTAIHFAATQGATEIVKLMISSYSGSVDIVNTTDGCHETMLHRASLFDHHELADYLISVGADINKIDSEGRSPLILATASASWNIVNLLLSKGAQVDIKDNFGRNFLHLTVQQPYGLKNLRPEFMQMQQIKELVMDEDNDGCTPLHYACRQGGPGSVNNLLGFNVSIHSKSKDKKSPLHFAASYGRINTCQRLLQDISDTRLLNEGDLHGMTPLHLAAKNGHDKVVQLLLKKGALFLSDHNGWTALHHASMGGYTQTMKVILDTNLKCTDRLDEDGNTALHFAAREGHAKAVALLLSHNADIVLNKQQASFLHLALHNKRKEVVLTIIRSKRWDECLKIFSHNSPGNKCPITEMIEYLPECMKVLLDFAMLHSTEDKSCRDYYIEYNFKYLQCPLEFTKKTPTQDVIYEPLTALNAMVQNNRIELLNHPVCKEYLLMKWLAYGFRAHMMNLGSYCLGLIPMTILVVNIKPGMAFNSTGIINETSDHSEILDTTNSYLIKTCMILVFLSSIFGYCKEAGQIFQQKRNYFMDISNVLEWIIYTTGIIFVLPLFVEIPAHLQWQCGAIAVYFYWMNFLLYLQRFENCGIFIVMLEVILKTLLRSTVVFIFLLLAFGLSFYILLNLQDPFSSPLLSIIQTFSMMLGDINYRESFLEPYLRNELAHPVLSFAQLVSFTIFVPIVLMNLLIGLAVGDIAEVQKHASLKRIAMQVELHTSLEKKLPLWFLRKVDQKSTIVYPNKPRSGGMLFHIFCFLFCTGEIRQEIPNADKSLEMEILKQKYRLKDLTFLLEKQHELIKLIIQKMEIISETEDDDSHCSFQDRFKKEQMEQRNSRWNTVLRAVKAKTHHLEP

T1 sequence (O75762 whole entry): as the sequence (O75762 whole entry C641A) above, with A641C counted along it

EC50 [2] [µM] | EC50 [3] [µM] | SMILES | excised-patch single-channel recording and calcium imaging, 1 mM [1]
 |  | C=CCN=C=S [AITC, allyl isothiocyanate] | consistently observed in both configurations, mirroring the effects of AITC, a membrane-permeable TRPA1 agonist
343 ± 12.5 | 432 ± 9.72 | CCCCCCCCCC(=O)CC(O)S(=O)(=O)O (stereo not drawn) [SH, sodium houttuyfonate] | 
